What was measured:
pregnant rats [1] = test: Delivery day and pup survival after L-NAME infusion to pregnant rats; effect of CGRP on fetal survival; type: in vivo; details: L-NAME 50/mg/day infusion to pregnant rats; 5 animals
pregnant rats [2] = test: Effects of L-NAME infusion on systolic blood pressure in pregnant rats; type: in vivo, rat; details: n = 5
Protocol: The effects of hypertensive agent L-NAME (50 mg/rat) on blood pressure were studied. […] L-NAME was infused as described in the FIG. 2.

What does the source list for `COC(=O)[C@@H](N)CCCNC(=N)N[N+](=O)[O-]` [L-NAME, N^G -nitro-L-arginine methyl ester]?
# of dead pups (pregnant rats [1]): 10; Weight of pups (pregnant rats [1]): 5.14 ± 0.07 g; Systolic Blood Pressure (pregnant rats [2]; Gestational Day 17 (before infusion start on day 18), L-NAME 50 mg/day): 116 ± 3 mm Hg; Systolic Blood Pressure (pregnant rats [2]; Gestational Day 18, L-NAME 50 mg/day infused from day 18): 137 ± 6 mm Hg; Systolic Blood Pressure (pregnant rats [2]; Gestational Day 19, L-NAME 50 mg/day infused from day 18): 154 ± 3 mm Hg; Systolic Blood Pressure (pregnant rats [2]; Gestational Day 22, L-NAME 50 mg/day infused from day 18): 137 ± 8 mm Hg; Systolic Blood Pressure (pregnant rats [2]; Postpartum PP Day 1, L-NAME 50 mg/day): 145 ± 5 mm Hg; Systolic Blood Pressure (pregnant rats [2]; Postpartum PP Day 2, L-NAME 50 mg/day): 140 ± 5 mm Hg

Source: US5910482A (priority 1996, dated 1999)
